Test results: paper PMC10700596 (Nature Communications, 2023)
Several values for one entry are separate records, joined by “and”; a condition that tells them apart may be missing. Identical values can stand only once. Entries after “also recorded” stand apart in the source; their conditions may differ.

Assays:
mice [1] = assay type: in vivo
mice [2] = assay type: in vivo; remark: listed apart in the source
ABL1-phosphorylated = ABL1-phosphorylated (Homo sapiens, UniProt P00519); assay: biochemical; assay type: binding; settings: 10000 nM; read-out: Percent Control
EP4R Thr76Ala mutant = EP4R Thr76Ala mutant (Homo sapiens, UniProt P35408, T76A); assay type: cell-based; settings: IC50 vs WT EP4R
Text: three independent experiments. Source data are provided as a Source Data file.
(§1) (1 picture or pasted object on this page, not shown here)

EP4R [3] = biological target: T1, EP4R (Homo sapiens, UniProt P35408); assay: cell-based; settings: read-out: cAMP Assay KB
T1 construct: Tango fusion cassette (only 'tango' is printed); expressed in transfected cells; host or cells: HTLA cells (tTA-dependent luciferase reporter, β-arrestin2-TEV fusion)

EP1R = EP1R (Homo sapiens, UniProt P34995); assay: Radioligand (3H-PGE2) displacement assay at EP1R; assay type: binding
BRAF(V600E) = BRAF(V600E) (Homo sapiens, UniProt P15056, V600E); assay: biochemical; assay type: binding; settings: 10000 nM; read-out: Percent Control
[4] = biological target: T2, JAK3(JH1domain-catalytic) (Homo sapiens, UniProt P52333); assay: KINOMEscan; assay type: binding
T2 construct: JAK3(JH1domain-catalytic); purchased Eurofins DiscoverX KINOMEscan (scanEDGE, 97 kinases)

COX-1 = biological target: T3, COX-1 (Homo sapiens, UniProt P23219); assay: COX-1 inhibition (Eurofins item 4173); assay type: biochemical
T3 construct: purchased Eurofins item 4173
Text: (§2) . […] This panel includes several adverse drug reaction receptors such as the serotonin receptor 5HT2b, M1 and M2 muscarinic receptors and adrenergic receptors. […]. page 7:
(§3) Supplementary Figure 7: Non-GPCR off-target screening for 74. a)-e) Dose-response curves of 74 at […]
(§4) proliferator-activated receptor gamma (PPARγ, Eurofins item G124). Data in a)-e) and g)-i) represent two technical replicates. Source data are provided as a Source Data file.
as §1

FLT3 = FLT3 (Homo sapiens, UniProt P36888); assay: biochemical; assay type: binding; settings: 10000 nM; read-out: Percent Control
EP4R [5] = biological target: T1, EP4R; assay: biochemical; assay type: binding; settings: 3H-PGE2; read-out: Radiologand displacement Ki
SNARK = SNARK (Homo sapiens, UniProt Q9H093); assay: biochemical; assay type: binding; settings: 10000 nM; read-out: Percent Control
[6] = biological target: T4, Thromboxane A2 (TP) receptor (Homo sapiens, UniProt P21731); assay: Functional cAMP production assay, TP receptor; assay type: cell-based
T4 sequence (P21731 1-343): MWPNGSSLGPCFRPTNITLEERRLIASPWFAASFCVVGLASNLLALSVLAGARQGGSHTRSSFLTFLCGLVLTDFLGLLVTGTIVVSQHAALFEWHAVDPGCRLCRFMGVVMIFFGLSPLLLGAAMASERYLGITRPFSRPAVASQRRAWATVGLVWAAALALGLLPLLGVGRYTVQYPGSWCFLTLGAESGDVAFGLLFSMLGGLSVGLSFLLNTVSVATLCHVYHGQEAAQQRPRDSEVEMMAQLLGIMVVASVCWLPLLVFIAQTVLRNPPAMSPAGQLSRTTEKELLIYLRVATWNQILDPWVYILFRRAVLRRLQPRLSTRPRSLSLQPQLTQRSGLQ

ULK2 = ULK2 (Homo sapiens, UniProt Q8IYT8); assay: biochemical; assay type: binding; settings: 10000 nM; read-out: Percent Control
Text: as §2, §3, §4, §1

97 human kinases = assay type: binding; settings: 10 µM
Text: as §2, §3, §4, §1
Description of Additional Supplementary Files
File Name: Supplementary Data 1
Description: List of all compounds described in this work.
For each compound, the compound number, the virtual library code (ZINC / Design ID), the Enamine catalog code (Enamine catalog ID), 2D information (SMILES) and a brief description whether the compound was derived from virtual screening or optimization of initial hits (Set) are provided. For virtual screening compounds, the displacement of radiolabeled 3HPGE2 at 10 µM in the initial binding assay at […]
For hit compounds, logIC50, IC50 and Ki in the EP4R PRESTO-Tango or EP4R Arrestin-BRET assays are shown. For lead compounds, the Kb in the EP4R cAMP Assay and Ki from the EP4R radioligand displacement assay are listed.
File Name: Supplementary Data 2
Description: Off-target screening of compound 74 against a panel of 97 human kinases (KINOMEscan, […]

FGFR3 = FGFR3 (Homo sapiens, UniProt P22607); assay: biochemical; assay type: binding; settings: 10000 nM; read-out: Percent Control
TGFBR1 = TGFBR1 (Homo sapiens, UniProt P36897); assay: biochemical; assay type: binding; settings: 10000 nM; read-out: Percent Control
AURKA = AURKA (Homo sapiens, UniProt O14965); assay: biochemical; assay type: binding; settings: 10000 nM; read-out: Percent Control
TSSK1B = TSSK1B (Homo sapiens, UniProt Q9BXA7); assay: biochemical; assay type: binding; settings: 10000 nM; read-out: Percent Control
TIE2 = TIE2 (Homo sapiens, UniProt Q02763); assay: biochemical; assay type: binding; settings: 10000 nM; read-out: Percent Control

T3 sequence (P23219 24-599): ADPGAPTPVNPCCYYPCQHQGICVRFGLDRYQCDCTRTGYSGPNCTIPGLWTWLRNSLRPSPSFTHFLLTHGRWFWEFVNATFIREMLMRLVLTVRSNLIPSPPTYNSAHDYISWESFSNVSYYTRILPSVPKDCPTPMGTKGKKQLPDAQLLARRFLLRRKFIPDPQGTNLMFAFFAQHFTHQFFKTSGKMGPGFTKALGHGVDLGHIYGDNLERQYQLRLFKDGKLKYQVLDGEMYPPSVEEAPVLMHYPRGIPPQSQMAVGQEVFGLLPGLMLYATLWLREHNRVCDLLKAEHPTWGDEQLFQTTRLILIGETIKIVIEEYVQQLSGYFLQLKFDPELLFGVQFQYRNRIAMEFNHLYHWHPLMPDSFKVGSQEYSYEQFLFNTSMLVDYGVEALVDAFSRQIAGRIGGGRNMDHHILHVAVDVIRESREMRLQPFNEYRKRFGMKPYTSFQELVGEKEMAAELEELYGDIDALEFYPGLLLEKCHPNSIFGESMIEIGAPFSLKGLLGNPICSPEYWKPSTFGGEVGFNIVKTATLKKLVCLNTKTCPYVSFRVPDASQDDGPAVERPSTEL
T2 sequence (P52333 782-1124 limits assumed): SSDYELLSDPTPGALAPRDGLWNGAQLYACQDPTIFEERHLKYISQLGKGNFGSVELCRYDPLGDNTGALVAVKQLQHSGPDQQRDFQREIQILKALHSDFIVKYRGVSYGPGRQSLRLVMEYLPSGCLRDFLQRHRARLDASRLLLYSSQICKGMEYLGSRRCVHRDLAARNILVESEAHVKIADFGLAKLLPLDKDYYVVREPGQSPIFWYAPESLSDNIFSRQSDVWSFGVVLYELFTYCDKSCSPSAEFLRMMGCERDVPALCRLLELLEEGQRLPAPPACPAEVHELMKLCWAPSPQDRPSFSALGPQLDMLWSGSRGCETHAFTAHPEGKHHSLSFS
T1 sequence (P35408 whole entry, the tested form may be a part): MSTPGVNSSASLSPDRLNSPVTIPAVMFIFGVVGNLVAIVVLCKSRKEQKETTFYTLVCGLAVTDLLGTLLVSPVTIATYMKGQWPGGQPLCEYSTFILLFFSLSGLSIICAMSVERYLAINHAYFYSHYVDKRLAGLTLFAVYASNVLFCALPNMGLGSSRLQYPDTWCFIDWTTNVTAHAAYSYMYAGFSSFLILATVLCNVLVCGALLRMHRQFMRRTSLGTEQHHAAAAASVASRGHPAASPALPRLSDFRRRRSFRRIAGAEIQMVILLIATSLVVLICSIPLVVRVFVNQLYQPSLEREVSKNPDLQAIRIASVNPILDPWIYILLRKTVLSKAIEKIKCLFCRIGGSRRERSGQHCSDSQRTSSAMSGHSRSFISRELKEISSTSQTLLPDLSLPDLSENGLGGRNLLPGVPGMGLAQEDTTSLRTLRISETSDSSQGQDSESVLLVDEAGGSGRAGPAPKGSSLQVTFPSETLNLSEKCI
Chain of ULK2 (Q8IYT8 whole entry): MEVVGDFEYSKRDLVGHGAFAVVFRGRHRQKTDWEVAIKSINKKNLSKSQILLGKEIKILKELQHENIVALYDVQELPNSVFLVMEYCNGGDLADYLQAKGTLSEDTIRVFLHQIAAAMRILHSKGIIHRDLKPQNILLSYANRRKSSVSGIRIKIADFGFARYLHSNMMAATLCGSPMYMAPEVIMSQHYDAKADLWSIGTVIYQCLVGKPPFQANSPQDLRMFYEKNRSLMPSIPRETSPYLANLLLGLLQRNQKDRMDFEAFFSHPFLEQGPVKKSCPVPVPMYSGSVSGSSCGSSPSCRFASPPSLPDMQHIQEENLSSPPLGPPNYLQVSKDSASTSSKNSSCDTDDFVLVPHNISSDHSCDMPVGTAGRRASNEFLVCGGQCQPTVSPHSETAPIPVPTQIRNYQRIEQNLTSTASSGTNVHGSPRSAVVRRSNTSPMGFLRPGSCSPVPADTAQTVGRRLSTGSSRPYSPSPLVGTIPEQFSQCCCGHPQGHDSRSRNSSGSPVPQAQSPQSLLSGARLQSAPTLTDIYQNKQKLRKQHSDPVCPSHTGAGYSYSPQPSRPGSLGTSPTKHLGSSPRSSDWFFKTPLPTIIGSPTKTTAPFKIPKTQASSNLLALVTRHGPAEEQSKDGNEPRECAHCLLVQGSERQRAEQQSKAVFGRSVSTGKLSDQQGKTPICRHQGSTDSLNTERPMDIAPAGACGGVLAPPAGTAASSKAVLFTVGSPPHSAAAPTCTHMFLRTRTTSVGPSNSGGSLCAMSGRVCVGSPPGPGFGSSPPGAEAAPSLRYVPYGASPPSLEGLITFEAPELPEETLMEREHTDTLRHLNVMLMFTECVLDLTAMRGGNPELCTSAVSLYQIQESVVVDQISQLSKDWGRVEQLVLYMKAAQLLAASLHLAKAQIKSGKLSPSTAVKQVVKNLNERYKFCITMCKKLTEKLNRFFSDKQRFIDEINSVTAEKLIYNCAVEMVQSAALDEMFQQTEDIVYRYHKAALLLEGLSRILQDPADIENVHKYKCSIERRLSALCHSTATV
Chain of AURKA (O14965 whole entry): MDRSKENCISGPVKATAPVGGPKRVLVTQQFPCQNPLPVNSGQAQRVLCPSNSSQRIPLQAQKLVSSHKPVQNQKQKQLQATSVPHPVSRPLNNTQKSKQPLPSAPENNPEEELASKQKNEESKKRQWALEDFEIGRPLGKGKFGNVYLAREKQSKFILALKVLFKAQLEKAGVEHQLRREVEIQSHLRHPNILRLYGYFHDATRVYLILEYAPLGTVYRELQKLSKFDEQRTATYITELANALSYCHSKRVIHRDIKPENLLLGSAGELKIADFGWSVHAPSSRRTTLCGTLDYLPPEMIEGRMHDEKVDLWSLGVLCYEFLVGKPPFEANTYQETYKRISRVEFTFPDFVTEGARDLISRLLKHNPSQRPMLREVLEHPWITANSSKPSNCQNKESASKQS
Chain of TGFBR1 (P36897 34-503): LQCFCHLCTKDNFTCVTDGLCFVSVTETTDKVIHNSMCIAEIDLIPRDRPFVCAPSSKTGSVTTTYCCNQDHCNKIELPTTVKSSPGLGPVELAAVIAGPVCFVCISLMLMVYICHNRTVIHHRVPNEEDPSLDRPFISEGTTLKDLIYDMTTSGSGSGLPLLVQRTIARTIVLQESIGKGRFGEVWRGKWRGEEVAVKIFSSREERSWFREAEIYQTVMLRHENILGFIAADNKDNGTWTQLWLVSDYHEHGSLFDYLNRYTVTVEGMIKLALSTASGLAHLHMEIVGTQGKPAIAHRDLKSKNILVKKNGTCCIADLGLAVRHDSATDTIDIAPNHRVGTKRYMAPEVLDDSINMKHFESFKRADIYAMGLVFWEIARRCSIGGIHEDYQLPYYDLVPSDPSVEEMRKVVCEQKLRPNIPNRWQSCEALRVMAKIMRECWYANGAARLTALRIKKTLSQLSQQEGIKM
Chain of BRAF(V600E) (P15056 whole entry V600E): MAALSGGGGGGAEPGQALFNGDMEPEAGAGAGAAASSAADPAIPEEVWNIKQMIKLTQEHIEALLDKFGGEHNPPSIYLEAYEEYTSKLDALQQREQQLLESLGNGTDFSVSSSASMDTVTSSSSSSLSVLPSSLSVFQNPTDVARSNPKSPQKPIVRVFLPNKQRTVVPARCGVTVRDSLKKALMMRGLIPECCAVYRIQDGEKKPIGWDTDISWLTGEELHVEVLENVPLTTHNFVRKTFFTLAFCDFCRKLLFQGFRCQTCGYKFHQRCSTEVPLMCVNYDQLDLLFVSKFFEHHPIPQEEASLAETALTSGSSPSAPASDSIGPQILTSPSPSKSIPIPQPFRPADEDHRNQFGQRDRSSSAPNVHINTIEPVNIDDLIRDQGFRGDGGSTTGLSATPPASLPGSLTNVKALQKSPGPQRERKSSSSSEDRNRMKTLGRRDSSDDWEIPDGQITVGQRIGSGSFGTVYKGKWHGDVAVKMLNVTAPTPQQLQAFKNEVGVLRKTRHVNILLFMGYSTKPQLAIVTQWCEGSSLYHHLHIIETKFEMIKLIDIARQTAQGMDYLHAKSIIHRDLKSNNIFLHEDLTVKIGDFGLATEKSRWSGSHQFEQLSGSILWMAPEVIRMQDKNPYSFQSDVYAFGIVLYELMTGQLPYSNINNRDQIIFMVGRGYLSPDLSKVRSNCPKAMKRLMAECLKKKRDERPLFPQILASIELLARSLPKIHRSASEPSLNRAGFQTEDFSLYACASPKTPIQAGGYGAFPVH
Chain of SNARK (Q9H093 whole entry): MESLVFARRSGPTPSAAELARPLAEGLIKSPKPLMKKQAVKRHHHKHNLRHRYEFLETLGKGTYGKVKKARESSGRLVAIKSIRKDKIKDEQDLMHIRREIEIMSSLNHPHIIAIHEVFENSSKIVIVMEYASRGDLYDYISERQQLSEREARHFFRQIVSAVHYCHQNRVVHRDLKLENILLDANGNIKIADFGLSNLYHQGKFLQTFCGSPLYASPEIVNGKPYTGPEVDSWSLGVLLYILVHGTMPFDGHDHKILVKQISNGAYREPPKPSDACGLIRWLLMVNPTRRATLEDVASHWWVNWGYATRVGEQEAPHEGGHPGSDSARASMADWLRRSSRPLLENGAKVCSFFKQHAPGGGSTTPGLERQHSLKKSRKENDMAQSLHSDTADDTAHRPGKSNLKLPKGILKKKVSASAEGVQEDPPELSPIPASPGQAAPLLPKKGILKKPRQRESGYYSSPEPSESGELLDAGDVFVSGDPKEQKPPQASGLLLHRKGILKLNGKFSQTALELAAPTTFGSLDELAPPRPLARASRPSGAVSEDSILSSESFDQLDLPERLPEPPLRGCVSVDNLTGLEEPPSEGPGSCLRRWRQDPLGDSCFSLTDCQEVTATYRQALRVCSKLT
Chain of EP4R Thr76Ala mutant (P35408 whole entry T76A): as the sequence (P35408 whole entry, the tested form may be a part) above, with T76A counted along it

## O=C([O-])C1CCC2(CC1)CC(Nc1ncnc3[nH]c4c(F)cccc4c13)C2.[Na+] (stereo not drawn) [Compound 77, [Na+].[O-]C(=O)C1CCC2(CC(C2)NC=3N=CN=C4NC=5C(F)=CC=CC5C34)CC1]
Mice [1]; 30 mg/kg IP, 30 min before 10 µg intraplantar PGE2, individual animals
  PGE2-induced allodynia, mechanical threshold (von Frey): 121.3 and 118.3 and 44.9 and 101.1 and 46.9
Mice [1]; mouse, in vivo
  effect on PGE2-induced mechanical hypersensitivity: dose-dependently prevented mechanical hypersensitivity; also recorded: dose-dependently reduces mechanical allodynia
Mice [2]; 30 mg/kg i.p. daily on four consecutive days
  effect on CFA-induced paw edema: significantly reduced the progression of CFA-induced inflammation; also recorded: significantly slowed the development of paw edema
Mice [2]; 30 mg/kg i.p. daily on four consecutive days after CFA
  reduction of paw thickness versus the control group: up to 20%
Mice [2]; 77 30 mg/kg, CFA day 1, 1 h after dosing, % of CFA D1 thickness, individual mice 6-10 and Average, 30 mg/kg
  Thickness D1 %BL: 92.0% and 93.2% and 87.6% and 98.7% and 95.8%
Mice [2]; 77 30 mg/kg, CFA day 1, 1 h after dosing, individual mice 6-10 and Average, 30 mg/kg
  Thickness D1: 3.58 and 3.3 and 3.4 and 3.89 and 3.68
Mice [2]; 77 30 mg/kg, CFA day 2, 1 h, % of CFA D1 thickness, individual mice 6-10 and Average, 30 mg/kg
  Thickness D2 (1h) %BL: 115.7% and 120.9% and 116.5% and 109.1% and 119.8%
Mice [2]; 77 30 mg/kg, CFA day 2, 1 h, individual mice 6-10 and Average, 30 mg/kg
  Thickness D2 (1h): 4.5 and 4.28 and 4.52 and 4.3 and 4.6
Mice [2]; 77 30 mg/kg, CFA day 2 before that day's dose (vehicle head: CFA D2), individual mice 6-10 and Average, 30 mg/kg
  Thickness BL D2: 4.81 and 4.39 and 4.69 and 4.16 and 4.59
Mice [2]; 77 30 mg/kg, CFA day 2 before that day's dose, % of CFA D1 thickness, individual mice 6-10 and Average, 30 mg/kg
  Thickness BL D2 %: 123.7% and 124.0% and 120.9% and 105.6% and 119.5%
Mice [2]; 77 30 mg/kg, CFA day 3, 1 h, % of CFA D1 thickness, individual mice 6-10 and Average, 30 mg/kg
  Thickness D3 (1h) %: 128.5% and 117.8% and 103.9% and 101.5% and 122.4%
Mice [2]; 77 30 mg/kg, CFA day 3, 1 h, individual mice 6-10 and Average, 30 mg/kg
  Thickness D3 (1h): 5 and 4.17 and 4.03 and 4 and 4.7
Mice [2]; 77 30 mg/kg, CFA day 3 before that day's dose, % of CFA D1 thickness, individual mice 6-10 and Average, 30 mg/kg
  Thickness CFA D3 %: 131.9% and 121.8% and 110.3% and 105.1% and 128.9%
Mice [2]; 77 30 mg/kg, CFA day 3 before that day's dose, individual mice 6-10 and Average, 30 mg/kg
  Thickness CFA D3: 5.13 and 4.31 and 4.28 and 4.14 and 4.95
Mice [2]; 77 30 mg/kg, CFA day 4, 1 h, % of CFA D1 thickness, individual mice 6-10 and Average, 30 mg/kg
  Thickness D4 (1h) %: 113.1% and 107.3% and 103.1% and 103.6% and 104.7%
Mice [2]; 77 30 mg/kg, CFA day 4, 1 h, individual mice 6-10 and Average, 30 mg/kg
  Thickness D4 (1h): 4.4 and 3.8 and 4 and 4.08 and 4.02
Mice [2]; 77 30 mg/kg, CFA day 4 before that day's dose, % of CFA D1 thickness, individual mice 6-10 and Average, 30 mg/kg
  Thickness CFA D4 %: 118.3% and 110.2% and 107.5% and 106.1% and 109.1%
Mice [2]; 77 30 mg/kg, CFA day 4 before that day's dose, individual mice 6-10 and Average, 30 mg/kg
  Thickness CFA D4: 4.6 and 3.9 and 4.17 and 4.18 and 4.19
Mice [2]; 77 30 mg/kg, CFA day 5, % of CFA D1 thickness, individual mice 6-10 and Average, 30 mg/kg
  Thickness CFA D5 %: 100.0% and 107.3% and 97.4% and 90.6% and 104.2%
Mice [2]; 77 30 mg/kg, CFA day 5, individual mice 6-10 and Average, 30 mg/kg
  Thickness CFA D5: 3.89 and 3.8 and 3.78 and 3.57 and 4
Mice [2]; 77 30 mg/kg, CFA day 7, % of CFA D1 thickness, individual mice 6-10 and Average, 30 mg/kg
  Thickness CFA D7 %: 102.8% and 96.0% and 90.2% and 86.0% and 106.8%
Mice [2]; 77 30 mg/kg, CFA day 7, individual mice 6-10 and Average, 30 mg/kg
  Thickness CFA D7: 4 and 3.4 and 3.5 and 3.39 and 4.1

## O=C(O)C1CCC2(CC1)CC(Nc1ncnc3[nH]c4c(F)cccc4c13)C2 (stereo not drawn) [Compound 74, OC(=O)C1CCC2(CC(C2)NC=3N=CN=C4NC=5C(F)=CC=CC5C34)CC1]
ABL1-phosphorylated
  remaining activity at 10 µM: 63%
EP4R Thr76Ala mutant
  reduced potency at the Thr76Ala mutant: 30 fold
EP4R [3]
  Kb: 16 nM
EP1R
  binding to EP1 receptor: no binding
BRAF(V600E)
  remaining activity at 10 µM: 84%
[4]; 10000 nM, read-out: Percent Control
  remaining binding at 10 µM: 0.25%
[4]; JAK3, [Compound] 0.0001 nM
  Signal (qPCR): 1.3e-6 and 8.87e-7
[4]; JAK3, [Compound] 0.001 nM
  Signal (qPCR): 1.24e-6 and 1.2e-6
[4]; JAK3, [Compound] 0.01 nM
  Signal (qPCR): 1.37e-6 and 1.42e-6
[4]; JAK3, [Compound] 0.169 nM
  Signal (qPCR): 1.07e-6 and 1.21e-6
[4]; JAK3, [Compound] 0.508 nM
  Signal (qPCR): 1.06e-6 and 1.26e-6
[4]; JAK3, [Compound] 1.52 nM
  Signal (qPCR): 1.19e-6 and 1.38e-6
[4]; JAK3, [Compound] 4.57 nM
  Signal (qPCR): 1.36e-6 and 1.47e-6
[4]; JAK3, [Compound] 13.7 nM
  Signal (qPCR): 1.11e-6 and 1.19e-6
[4]; JAK3, [Compound] 41.2 nM
  Signal (qPCR): 1.18e-6 and 1.3e-6
[4]; JAK3, [Compound] 123 nM
  Signal (qPCR): 1.07e-6 and 1.06e-6
[4]; JAK3, [Compound] 370 nM
  Signal (qPCR): 8.09e-7 and 7.97e-7
[4]; JAK3, [Compound] 3330 nM
  Signal (qPCR): 1.07e-7
[4]; JAK3, [Compound] 10000 nM
  Signal (qPCR): 2.42e-8 and 3.31e-8
COX-1; 3 µM
  inhibitory / off-target activity at COX-1: no off-target activity; also recorded: no inhibitory activity
COX-1; COX-1, 3 µM, technical replicates
  %Inhibition of Control Values: -5.7% and -9.9%
FLT3
  remaining activity at 10 µM: 26%
EP4R [5]
  Ki: 366 nM
SNARK
  remaining activity at 10 µM: 54%
[6]
  off-target activity at thromboxane A2 receptor: no off-target activities
ULK2
  remaining activity at 10 µM: 54%
97 human kinases
  inhibition in kinase panel: notable inhibition of five kinases
FGFR3
  remaining activity at 10 µM: 81%
TGFBR1
  remaining activity at 10 µM: 54%
AURKA
  remaining activity at 10 µM: 22%
TSSK1B
  remaining activity at 10 µM: 52%
TIE2
  remaining activity at 10 µM: 81%
